In assay [1] the target is T1, human topo IIα ATPase domain (Homo sapiens, UniProt P11388).
T1 construct: the ATPase domain of human topo IIα with 1–453 amino acid residues; purchased Inspiralis
Kind of assay: Microscale thermophoresis (MST) binding. Particulars: truncated human topo IIα ATPase domain; three independent runs. A general note: In MST a laser heats a spot of the sample, and binding alters the fluorescence response.

The test system of assay [2] is HepG2 cells. The assay is described as follows: Cell cycle analysis by flow cytometry. The assay is classed as cell-based, human. The settings on record: 24 h. For orientation: A flow cytometer gives signals particle by particle.
Assay [3] has as its system HepG2 cells. Kind of assay: Cell proliferation, Ki67 flow cytometry. The assay is classed as cell-based, human. The settings on record: 24 h, 50 μM.
Assay [4] deals with T2, human topo IIα (Homo sapiens, UniProt P11388).
T2 construct: purchased Inspiralis (Norwich, U.K.)
Kind of assay: HTS relaxation assay of human topo IIα. It is filed as biochemical.

Assay [5] has as its target T2, human topo IIα. The assay is described as follows: Human topo IIα-mediated kDNA decatenation assay. The assay is classed as biochemical. The method, then:
We made use of the human topo II decatenation assay kit from Inspiralis (Norwich, U.K.) to assess the ability of selected compounds to impede DNA decatenation.[89],[90] It was performed for topo IIα and topo IIβ isoforms using the protocol as described previously.[35]

T2 sequence (P11388 whole entry): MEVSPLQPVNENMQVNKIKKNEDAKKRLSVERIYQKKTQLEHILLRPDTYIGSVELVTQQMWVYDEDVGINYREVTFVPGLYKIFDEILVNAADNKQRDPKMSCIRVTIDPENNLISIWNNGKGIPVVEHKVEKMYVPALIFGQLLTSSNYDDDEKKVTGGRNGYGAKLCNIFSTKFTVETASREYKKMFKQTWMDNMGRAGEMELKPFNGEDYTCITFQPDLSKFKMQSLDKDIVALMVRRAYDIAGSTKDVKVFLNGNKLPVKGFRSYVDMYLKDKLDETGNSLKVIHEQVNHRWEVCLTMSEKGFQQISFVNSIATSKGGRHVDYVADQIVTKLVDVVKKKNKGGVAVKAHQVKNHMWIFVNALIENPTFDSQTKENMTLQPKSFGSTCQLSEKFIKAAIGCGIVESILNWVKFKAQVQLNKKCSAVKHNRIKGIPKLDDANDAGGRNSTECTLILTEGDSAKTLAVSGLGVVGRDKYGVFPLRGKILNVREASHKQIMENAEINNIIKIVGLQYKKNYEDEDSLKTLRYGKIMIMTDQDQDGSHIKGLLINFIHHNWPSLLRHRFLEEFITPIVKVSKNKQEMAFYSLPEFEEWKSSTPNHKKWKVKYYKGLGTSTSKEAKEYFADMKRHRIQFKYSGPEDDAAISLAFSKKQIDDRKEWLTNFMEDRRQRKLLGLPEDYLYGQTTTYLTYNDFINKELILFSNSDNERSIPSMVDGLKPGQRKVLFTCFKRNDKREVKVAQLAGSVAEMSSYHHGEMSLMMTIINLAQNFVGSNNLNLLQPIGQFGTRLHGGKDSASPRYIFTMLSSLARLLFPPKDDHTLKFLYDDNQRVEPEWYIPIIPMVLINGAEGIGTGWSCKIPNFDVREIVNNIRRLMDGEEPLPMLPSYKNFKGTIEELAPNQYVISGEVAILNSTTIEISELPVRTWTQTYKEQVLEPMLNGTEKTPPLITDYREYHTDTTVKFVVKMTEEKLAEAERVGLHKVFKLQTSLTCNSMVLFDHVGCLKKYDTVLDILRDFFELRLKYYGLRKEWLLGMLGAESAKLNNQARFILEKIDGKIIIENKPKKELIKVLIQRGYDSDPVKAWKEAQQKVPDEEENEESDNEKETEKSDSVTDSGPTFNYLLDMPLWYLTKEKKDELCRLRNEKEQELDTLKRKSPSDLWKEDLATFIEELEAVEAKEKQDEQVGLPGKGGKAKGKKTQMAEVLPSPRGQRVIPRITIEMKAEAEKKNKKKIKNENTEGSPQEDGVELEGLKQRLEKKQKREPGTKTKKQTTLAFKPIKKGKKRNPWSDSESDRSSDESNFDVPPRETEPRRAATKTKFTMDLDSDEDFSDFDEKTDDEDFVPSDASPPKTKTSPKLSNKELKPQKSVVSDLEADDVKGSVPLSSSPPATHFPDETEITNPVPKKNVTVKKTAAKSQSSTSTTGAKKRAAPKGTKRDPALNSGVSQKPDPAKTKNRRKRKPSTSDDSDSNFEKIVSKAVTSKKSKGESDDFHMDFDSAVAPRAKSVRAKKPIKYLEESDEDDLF
T1 sequence (P11388 1-453): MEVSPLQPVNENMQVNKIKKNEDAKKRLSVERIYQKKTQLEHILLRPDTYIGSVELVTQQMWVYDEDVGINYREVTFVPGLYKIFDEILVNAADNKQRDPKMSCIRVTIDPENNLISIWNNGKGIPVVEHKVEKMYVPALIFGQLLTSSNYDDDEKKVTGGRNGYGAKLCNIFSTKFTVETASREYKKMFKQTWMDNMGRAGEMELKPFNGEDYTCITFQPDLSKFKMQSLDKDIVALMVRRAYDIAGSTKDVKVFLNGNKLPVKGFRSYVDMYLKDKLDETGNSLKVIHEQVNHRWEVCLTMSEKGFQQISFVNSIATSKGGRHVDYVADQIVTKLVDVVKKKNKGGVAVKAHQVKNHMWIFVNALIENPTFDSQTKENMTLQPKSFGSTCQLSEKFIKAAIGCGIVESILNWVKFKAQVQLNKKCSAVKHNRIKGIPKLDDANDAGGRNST

Broadly, the Kd is the concentration at which binding is half-saturated. A low value points to a tighter complex. The IC50 is the concentration needed to halve the response being measured. Read a low IC50 as inhibition by little substance. On to `Cc1nc(N)sc1-c1csc(Nc2ccc(C(F)(F)F)cc2)n1` [Compound 1], for which the Kd in assay [1] came out at 50.6 ± 7.6 µM. Further, the “cell cycle arrest (in words)” value in the assay with HepG2 cells [2] is “cell cycle arrest in the G1 phase”. For the same molecule, the “cell proliferation (Ki67)” value in the assay on HepG2 cells [3] is listed as 65.1%. Moreover, the half-maximal inhibitory concentration (IC50) at human topo IIα [4] stood at 33.4 µM. For the same molecule, the “% Decatenated Average” value on human topo IIα [5] (31.5 μM) is 80.9%. Besides, the inhibition of decatenation result against human topo IIα [5] (125 μM) and against human topo IIα [5] (500 μM) was “complete inhibition” each time.

Values taken from PMC7469689, “Substituted 4,5′-Bithiazoles as Catalytic Inhibitors of Human DNA Topoisomerase IIα” (Journal of Chemical Information and Modeling, 2020).
